Test results: patent US11464762B2, “Carcinogenesis inhibitor” (NATIONAL CANCER CENTER, priority 2017, dated 2022)

Legend:
[1] = system: intestinal polyps of C57BL/6-Apc^Min/+ mouse (Min mouse); assay: Evaluation of intestinal polyp formation in Min mice; type: in vivo; conditions: for Number of intestinal polyp, colon / Number of intestinal polyp, small intestine distal segment / Number of intestinal polyp, small intestine middle segment / Number of intestinal polyp, small intestine proximal segment / Number of intestinal polyp, total: mean
Description: (1) Grouping of Experimental Animals and Administration of a Test Substance
As to an experimental animal, there was used a C57BL/6-Apc^Min/+ mouse (Min mouse) which was a familial adenomatosis coli model. The Min mouse is an Apc (adenomatous polyoisis coli) mutant mouse and an increase in polyp numbers is noted therein with time. It has been also known that the Min mouse is occurred with dyslipidemia in a state of highly oxidative stress. 5-week-old male Min mice were bred and acclimatized in a plastic cage (235×325×170 H mm) (six mice in maximum in a cage) in a laboratory where the temperature, the humidity and the brightness/darkness cycle were set at 24±2° C., 55% and 12 hours, respectively. In the meanwhile, they were freely ingested with filtered water and basic feed (MN-76A, CLEA Japan Inc.).
(§1) The experimental animals were randomly classified into a control group, a group to which 500 ppm of a test substance was administered and a group to which 1000 ppm of a test substance was administered. In each group, 10 mice per group were organized in such a manner that average body weight in the group became same. The control group was administered with a basic feed only and each of the 500 ppm test substance-administering group and the 1000 ppm test substance-administering group was administered with a mixed feed of a test substance (Compound 21) in 500 and 1000 ppm concentrations, respectively for eight weeks.
(2) Measurement of Numbers of Polyps in the Intestinal Tract
The mice in each group were killed under anesthetization at 13 weeks old and, after laparotomy, the intestinal tract was excised and fixed with formalin. Small intestine was divided into proximal segment (the segment in about 4 cm length from pylorus), middle segment and distal segment, then the polyp numbers in the four segments including colon were counted under a stereomicroscope and the mean value in each group was calculated.

[2] = system: PCNA antibody-positive cells in polyp part of mouse small intestine mucosa; assay: Cell proliferation ability in polyp part of intestinal mucosa (PCNA immunostaining); type: in vivo; conditions: Min mice, 1000 ppm in feed, n = 14 (control group 71.26)
Procedure: The formalin-fixed slices embedded in paraffin prepared from the polyp part of mouse small intestine mucosa of the control group and of the 1000 ppm test substance-administering group being excised in Test Example 1 were dipped in xylene for five minutes×three times for the purpose of deparaffinization and were dipped in 99.5% alcohol for five minutes×three times to enhance the hydrophilicity followed by dipping into distilled water for 10 minutes. After that, the slices were dipped into a methanol solution containing 0.3% of hydrogen peroxide to conduct a deactivation treatment for the endogenous peroxidase. Further, 1 mL of a 0.3% Triton [Registered trade mark] X-100 solution containing 2% of horse serum (a phosphate-buffered saline (PBS) containing 0.3% of Triton) followed by blocking for 30 minutes.
To the slices was added an anti-mouse proliferating cell nuclear antigen (PCNA) antibody (Calbiochem [Registered trade mark]) diluted to an extent of 100 times and a primary antibody response was conducted overnight at 4° C. […] The ratio of the PCNA antibody-positive cell numbers to the total cell numbers in the microscopic field in each group was also calculated. […]

c-Myc = assay: Expression level of cell proliferation-associated factor mRNA (realtime-PCR), c-Myc; type: in vivo, mouse; conditions: Min mice, 1000 ppm in feed, GAPDH-normalised, control group = 1.00, n=3
Procedure: (§2) (1) mRNA Extraction from the Intestinal Polyp Part and Non-Polyp Part, and cDNA Synthesis
(§3) TRIsol (Invitrogen) (500 μL) was added to a polyp part and a non-polyp part of small intestine mucosa of mouse of the control group and the 1000 ppm test substance-administering group scraped in Test Example 1. After 100 μL of chloroform was added thereto and mixed therewith, the mixture was centrifuged (12000 rpm for 2 minutes) and the supernatant liquid was recovered therefrom. The recovered supernatant liquid was added 250 μL of ethanol and RNA was extracted therefrom and purified using a column (QIAGEN).
(§4) After DNAse (Invitrogen) treatment, cDNA was prepared from 1 μg of the total RNA using High-Capacity cDNA Reverse Transcription Kits (Applied Biosystems). […]
(§5) Expression level of mRNA of the cell proliferation-associated factors [c-Myc, CDK4 and cyclin D1] was measured by a realtime-PCR method using the cDNA being synthesized from the total RNA extracted in the above (1). With regard to the polyp part, the mRNA expression level only of c-Myc was measured.
(§6) As to the PCR primers for each of the cell proliferation-associated factors, there were used c-Myc [Forward: […] […] Each of the resulted measured values was divided by the measured value of the glyceraldehyde-3-phosphate dehydrogenase (GAPDH) gene which was an internal standard whereupon the relative values were calculated. […]

CDK4 = assay: Expression level of cell proliferation-associated factor mRNA (realtime-PCR), CDK4; type: in vivo, mouse; conditions: non-polyp part of small intestine mucosa, Min mice, 1000 ppm in feed, GAPDH-normalised, control group = 1.00, n=3
Procedure: as §2, §3, §4, §5, §6

cyclin D1 = assay: Expression level of cell proliferation-associated factor mRNA (realtime-PCR), cyclin D1; type: in vivo, mouse; conditions: non-polyp part of small intestine mucosa, Min mice, 1000 ppm in feed, GAPDH-normalised, control group = 1.00, n=3
Procedure: as §2, §3, §4, §5, §6

[3] = Evaluation of safety, repeated oral administration to healthy male adults; type: in vivo, human; conditions: oral 400 mg single dose, 17 administrations over seven days, six cases
Procedure: Eight healthy male adults (21 to 24 years age) (consisting of six cases being administered with the test substance and two cases being administered with the placebo) were used as the subjects and the present compound was orally administered repeatedly to evaluate the safety. A test substance (Compound 21) was orally administered in the single dose of 400 mg in such a manner that, on the first and the seventh day of the administration, once-daily in the morning on an empty stomach and, on the second to the sixth days of the administration, thrice-daily on an empty stomach (at 09:00, 14:00 and 19:00) together with 150 mL of water each (17 administrations in total).

[4] = Feed and body weight of Min mice during the administration period; type: in vivo, mouse; conditions: 500 and 1000 ppm in feed for eight weeks versus control group
Procedure: as §1

[5] = 500 ppm in feed for eight weeks
[6] = 500 ppm in feed for eight weeks, n = 9
[7] = 1000 ppm in feed for eight weeks
[8] = 1000 ppm in feed for eight weeks, n = 8

CN1C(=O)NC(=O)C1O (stereo not shown) [Compound 21, 5-Hydroxy-1-methylhydantoin]
Decrease of polyp numbers in the middle segment of small intestine as compared with the control group [1, 5]: about 37% | Decrease of total numbers of polyps as compared with the control group [1, 5]: about 17% | Number of intestinal polyp, colon [1, 6]: 1.00 | Number of intestinal polyp, small intestine distal segment [1, 6]: 27.00 | Number of intestinal polyp, small intestine middle segment [1, 6]: 7.33 | Number of intestinal polyp, small intestine proximal segment [1, 6]: 3.89 | Number of intestinal polyp, total [1, 6]: 39.22 | Decrease of polyp numbers in the middle segment of small intestine as compared with the control group [1, 7]: ~29% | Decrease of total numbers of polyps as compared with the control group [1, 7]: about 17% | Number of intestinal polyp, colon [1, 8]: 0.38 | Number of intestinal polyp, small intestine distal segment [1, 8]: 25.63 | Number of intestinal polyp, small intestine middle segment [1, 8]: 8.25 | Number of intestinal polyp, small intestine proximal segment [1, 8]: 5.13 | Number of intestinal polyp, total [1, 8]: 39.38 | Ratio of the PCNA antibody-positive cell numbers to the total cell numbers [2]: 58.40% | Ratio of expression quantity of cell proliferation-associated factor c-Myc (c-Myc; non-polyp part of small intestine mucosa): 0.25 | Ratio of expression quantity of cell proliferation-associated factor c-Myc (c-Myc; polyp part of small intestine mucosa): 0.39 | Ratio of expression quantity of cell proliferation-associated factor CDK4 (CDK4): 0.47 | Ratio of expression quantity of cell proliferation-associated factor Cyclin D1 (cyclin D1): 0.27 | Abnormal variation in blood pressure, pulse rate, body temperature, hematological test, blood biochemical test and urinary test [3]: no abnormal variation suspected to be related to the present compound | Clinical symptoms suspected to be related to the compound [3]: no clinical symptom suspected to be related to the present compound | Difference in the feed and in the body weight among the groups during the administration period [4]: No significant difference
